What was measured:
APP translation in SN = experiment: 35S-Met labeling and immunoprecipitation of newly synthesized APP in synaptoneurosomes; format: cell-based, mouse; details: WT SN
Procedure: WT and KO SNs (450 μl) were mixed with 25 μl Redivue Pro-Mix-L [^35S] for 5 min prior to stimulation with 25 μl 2 mM DHPG. Samples were flash frozen at the indicated times. To analyze new protein synthesis, SN lysates were cleared of free isotope, Percoll®, and sucrose by purification with the PAGEprep Advance kit according to the manufacturer's directions. Protein concentrations were determined by the BCA assay, and 15 μg protein was denatured and loaded per lane on 12% SDS gels for content analysis. Gels were dried and exposed to a phosphorimager screen to identify the results of these assays.
To specifically analyze APP synthesis, WT and KO SN lysates (500 μl) were immunoprecipitated with APP antibody. Briefly, SN lysates were precleared with protein A magnetic beads in 1 ml volumes containing 500 μl SNs, 500 μl 2×IP buffer (20 mM HEPES (pH 7.4), 400 mM NaCl, 60 mM EDTA (pH 8), and 2% Triton X-100), protease inhibitor cocktail, and 100 μl packed fresh protein A magnetic beads. For the immunoprecipitations, 10 μg anti-APP antibody (Zymed catalog number 51-2700) and fresh protein A magnetic beads were added and mixed overnight at 4° C. The beads were washed three times with IP buffer, and the final, washed pellets were suspended in 40 μl 2×SDS sample buffer and boiled for 5 min; the proteins were then separated on 12% SDS gels. The gels were transferred to a nitrocelluose membrane, dried, exposed to a phosphorimager screen, and scanned on a STORM 860 phosphorimager (Molecular Dynamics http://www6.amershambiosciences.com). APP bands at 120 kDa were quantitated with ImageQuant software (GE Healthcare Life Sciences, http://www4.amershambiosciences.com).
For mGluR5 inhibitor studies, SNs (425 μl) were preincubated with 25 μl anisomycin (40 μM final concentration) or MPEP (10 μM final concentration) for 10 min prior to the addition of 25 μl ^35S-Met for 5 min and stimulation with DHPG (100 μM final concentration) for 15 min. Samples were processed as described in the preceding paragraph.
To further assess FMRP regulation of APP levels in brain, cortical SN were prepared from WT mice and overall protein synthesis analyzed in response to DHPG (100 μM)-induced mGluR5 activation. SN were metabolically active as assessed by ^35S-Met incorporation. […]
These conclusions were tested by assessing the effects on APP translation of contacting SN with a group 1 mGluR5 antagonist, 2-methyl-6-(phenylethynyl)-pyridine (MPEP). […] To assess the effect of MPEP, a specific mGluR5 antagonist, on DHPG stimulation of de novo APP synthesis, SN were pre-treated with 10 μM MPEP for 10 min prior to the addition of ^35S-Met for 5 min and stimulation with 100 μM DHPG for 15 min. ^35S-Met-labeled APP was immunoprecipitated with anti-APP antibodies and analyzed by SDS-PAGE. […]

[1] = tested on: dendritic APP in primary neuronal cells; experiment: Immunofluorescence confocal quantitation of dendritic APP in primary cortical neurons; format: cell-based, mouse
Procedure: Pregnant female mice at embryonic day 18 (E18) were anesthetized with halothane prior to decapitation and transfer of the uterine sac to ice-cold HBSS. […] Cells were counted by trypan blue dye exclusion and plated at 1.25×10^5 cells/ml on poly(D)-lysine-coated glass coverslips in 12-well tissue-culture dishes and cultured for 11 d at 37° C./5% CO2. Half of the culture medium was removed and replaced with fresh, warm medium on day 4. […] All washes and antibody dilutions were in PBS containing 2% FBS. […] Images were acquired with a Nikon C1 laser-scanning confocal microscope with EZ-C1 v2.20 software (Nikon, http://www.nikon.com) at 60× magnification. APP levels in the puncta of four to seven dendrites per sample were quantitated with IMAGE J software using the Analyze Particles function (minimum of 205 puncta analyzed per treatment) (Rasband, Image J, U.S. National Institutes of Health, http://rsb.info.nih.gov/ij; 1997-2006). Figures were assembled with Adobe Photoshop 8.0 (Adobe Systems, http://www.adobe.com). […] It was recognized that SN are a relatively crude preparation of pre- and post-synaptic dendrites that are contaminated with other cell types, such as astrocytes, which form synapses with neurons. Thus, primary E18 cortical neuron cultures were prepared from WT and Fmr-1 KO brains and dendritic APP levels assessed using an immunofluorescence assay. There was a 21% increase in the basal level of APP in untreated dendrites from Fmr-1 KO neurons compared to WT (FIG. 5B). […] Staining of dendritic puncta was analyzed by confocal microscopy and quantitated with Image J software using the Analyze Particles function (a minimum of 475 particles were analyzed per treatment) (Rasband, W. S., Image J, U.S. National Institutes of Health, http://rsb.info.nih.gov/ij; 1997-2006). Duplicate slides were stained for each treatment and the number and intensity of dendritic puncta from three areas of each slide were analyzed and averaged. All MPEP-treated samples were statistically different from untreated controls by t-test analyses (p<0.005) and expressed as standard error of the mean (SEM).

[2] = WT primary neuronal cells, 10 μM MPEP

Row | Structure (SMILES) | increase in APP translation (APP translation in SN; 100 μM DHPG, 15 min) [fold] | increase in APP translation over control (APP translation in SN; 100 μM DHPG, 1 hr) [fold] | increase in dendritic APP levels ([1]; Fmr-1 KO cultures, DHPG 10 and 20 min) | increase in dendritic APP levels ([1]; WT neurons, 100 μM DHPG, 10 and 20 min) | effect on DHPG-mediated synthesis of APP (APP translation in SN; 10 μM MPEP pre-treatment 10 min, 100 μM DHPG 15 min) | decrease in dendritic APP (average particle intensity) ([1]; WT C57BL/6 primary neuronal cells, 10 μM MPEP, 15 min) [%] | decrease in area of each particle [1, 2] [%] | increase in number of particles in a defined area [1, 2] [%] | decrease in dendritic APP at later times ([1]; WT primary neuronal cells, 10 μM MPEP, 4 hr and 1 day)
1 | N[C@@H](C(=O)O)c1cc(O)cc(O)c1 (racemic) [DHPG, (R,S)-3,5-dihydroxyphenylglycine] | 2.7 | 1.6 | no increase | 18-25% |  |  |  |  | 
2 | Cc1cccc(C#Cc2ccccc2)n1 [MPEP, 2-methyl-6-(phenylethynyl)pyridine] |  |  |  |  | blocked | 37 | 22 | 29 | persisted

Reference: patent US20130149721A1, “Methods for Inhibiting Amyloid Precursor Protein and Beta-Amyloid Production and Accumulation” (WISCONSIN ALUMNI RESEARCH FOUNDATION, priority 2008, published 2013)
